The values that follow are results of earlier work, collected in PMC11088877, “AMP-activated protein kinase can be allosterically activated by ADP but AMP remains the key activating ligand” (Biochemical Journal, 2024).

The target in the data set is bacterially expressed AMPK heterotrimers (γ subunit CBS sites). Particulars: in the presence of Mg2+ and staurosporine; read-out: estimated Kd at the CBS3 site; cited from earlier work.

For orientation: Kd means the concentration at which binding is half-saturated. Consider `Nc1ncnc2c1ncn2[C@@H]1O[C@H](COP(=O)(O)OP(=O)(O)OP(=O)(O)O)[C@@H](O)[C@H]1O` [ATP], for which the Kd is 100 to 500 µM.
